The values below come from patent US4604238A, “Analogs of calcitonin” (Armour Pharmaceutical Company, priority 1984, dated 1986).

Bridge positions count the residues as written; N and C are the ends. Peptide text beside a SMILES is read from it.

In assay [1] the test system is serum calcium concentration.
Procedure: Biological Assay of Calcitonin Analogs In Vivo
Rats were divided into four groups of seven animals, and each group was assigned at random to a dose of standard or test solution. Low and high doses were chosen from the linear portion of the dose-response curve. For the salmon calcitonin standard, the values were 0.7 and 2.1 ng. peptide/100 g. body weight (BW). This dose approximates 3 and 9 MU/100 g. BW. Peptides were given by subcutaneous injection (0.2 ml/100 g. BW) and blood was withdrawn 1 hour later for serum calcium determination. Sera are processed and analyzed within two hours of collection. Results were analyzed within two hours of collection.
The conditions of assay [2]: literature values, Experientia 32(9), 1104-1106 (1976); cited from earlier work.

Take `CC(C)C[C@H](NC(=O)CNC(=O)[C@@H]1CSSC[C@H](N)C(=O)NCC(=O)N[C@@H](CO)C(=O)N[C@@H](CC(C)C)C(=O)N[C@@H](CO)C(=O)N[C@@H]([C@@H](C)O)C(=O)N1)C(=O)NCC(=O)N[C@@H](CCCCN)C(=O)N[C@@H](CC(C)C)C(=O)N[C@@H](CO)C(=O)N[C@@H](CCC(N)=O)C(=O)N[C@@H](CCC(=O)O)C(=O)N[C@@H](CC(C)C)C(=O)N[C@@H](Cc1c[nH]cn1)C(=O)N[C@@H](CCCCN)C(=O)N[C@@H](CC(C)C)C(=O)N[C@@H](CCC(N)=O)C(=O)N[C@H](C(=O)N1CCC[C@H]1C(=O)N[C@@H](CCCNC(=N)N)C(=O)N[C@H](C(=O)N[C@@H](CC(N)=O)C(=O)N[C@H](C(=O)NCC(=O)N[C@@H](CO)C(=O)NCC(=O)N[C@H](C(=O)N1CCC[C@H]1C(N)=O)[C@@H](C)O)[C@@H](C)O)[C@@H](C)O)[C@@H](C)O` [[Gly^2,Ser^3,Gly^8,des-Tyr^22]SCT, [Gly^2,Ser^3,Gly^8,des-Tyr^22]salmon calcitonin] (H-CGSLSTCGLGKLSQELHKLQTPRTNTGSGTP-NH2; disulfide 1-7): the biological potency in assay [1] (rat, in vivo, sc) is reported as 8600 IU/mg. Regarding `CC(C)C[C@H](NC(=O)[C@H](CCCCN)NC(=O)CNC(=O)[C@H](CC(C)C)NC(=O)[C@@H](NC(=O)[C@@H]1CSSC[C@H](N)C(=O)N[C@@H](CO)C(=O)N[C@@H](CC(N)=O)C(=O)N[C@@H](CC(C)C)C(=O)N[C@@H](CO)C(=O)N[C@@H]([C@@H](C)O)C(=O)N1)C(C)C)C(=O)N[C@@H](CO)C(=O)N[C@@H](CCC(N)=O)C(=O)N[C@@H](CCC(=O)O)C(=O)N[C@@H](CC(C)C)C(=O)N[C@@H](Cc1c[nH]cn1)C(=O)N[C@@H](CCCCN)C(=O)N[C@@H](CC(C)C)C(=O)N[C@@H](CCC(N)=O)C(=O)N[C@H](C(=O)N[C@@H](Cc1ccc(O)cc1)C(=O)N1CCC[C@H]1C(=O)N[C@@H](CCCNC(=N)N)C(=O)N[C@H](C(=O)N[C@@H](CC(N)=O)C(=O)N[C@H](C(=O)NCC(=O)N[C@@H](CO)C(=O)NCC(=O)N[C@H](C(=O)N1CCC[C@H]1C(N)=O)[C@@H](C)O)[C@@H](C)O)[C@@H](C)O)[C@@H](C)O` [salmon calcitonin, Salmon calcitonin], in assay [1] (independently determined content of the standard), the “potency of the standard salmon calcitonin used” value was “greater than 4,000 IU/mg”.

Take “(1,7α-L-aminosuberic acid)eel calcitonin”: the hypocalcemic potency result in assay [2] was “about 3400 IU/mg”. For the molecule “eel calcitonin [synthetic eel calcitonin]”, in assay [2], the hypocalcemic potency entry is reported as “around 4300 IU/mg”.
